According to patent publication US7091240B2, “Tubulin binding ligands and corresponding prodrug constructs” (Oxigene, Inc., priority 2000, dated 2006):
Read-outs that look alike come from different tables or passages of the source.

Tests used:
[1] = tested on: murine hemangioendothelioma MHEC-5T cell line; assay: In vitro antiproliferative activity, MTT assay; type: cell-based
Protocol: The following compounds were tested for in vitro antiproliferative activity against the murine hemangioendothelioma MHEC-5T cell line using a standard MTT assay (see Mosman, J. Immunol. Methods, 1983). In actively proliferating cells, an increase in MTT conversion is spectrophotometrically quantified by the reduction of MTT (3-[4,5-dimethylthiazol-2-yl]-2,5-diphenyl tetrazolium bromide) to the insoluble formazan dye by enzymes associated with metabolic activity. A compound with growth inhibitory activity will cause a reduction in dye formation relative to cells exposed to a vehicle control.

[2] = tested on: human breast cancer MDA-MB-231 model; assay: Tumor growth control in vivo; conditions: 400 mg/kg i.p. in saline, SCID mice, Days 1, 2 and 6 post-treatment
Protocol: The antitumor activity of BbT prodrug 8 was assessed in female tumor-bearing mice by measuring its effects on tumor volume in comparison with CA4P. A human breast cancer MDA-MB-231 model was established by subcutaneous injection of cultured M DA-MB-231 cells (1×10^6) in Fox Chase CB-17 SCID mice.
Mice were administered CA4P or BbT prodrug in saline carrier at 400 mg/kg by intraperitoneal (i.p.) injection after 1 week of MDA-MB inoculation. Saline carrier only was used as the control treatment. On Days 1, 2 and 6 post-treatment, tumors were measured by width and length by a caliber. Tumor volume was calculated according to the following formula: Length×Width^2×0.4. The relative anti-tumor effects are illustrated in FIG. 9.

purified tubulin = assay: Inhibition of tubulin polymerization assay; type: biochemical, bovine; conditions: for IC50: read-out: IC50 In Vitro Inhibition of Tubulin Polymerization, 1.5 mg/ml tubulin, preincubated 15 minutes at 37° C., GTP-induced
Protocol: IC50 values for tubulin polymerization were determined according to a previously described procedure (Bai et al, Cancer Research, 1996). Purified tubulin is obtained from bovine brain cells as described in Hamel and Lin (Hamel and Lin, Biochemistry, 1984). Various amounts of inhibitor were preincubated for 15 minutes at 37° C. with purified tubulin. After the incubation period, the reaction was cooled and GTP was added to induce tubulin polymerization. Polymerization was then monitored in a Gilford spectrophotometer at 350 nm. The final reaction mixtures (0.25 ml) contained 1.5 mg/ml tubulin, 0.6 mg/ml microtubule-associated proteins (MAPs), 0.5 mM GTP, 0.5 mM MgCl2, 4% DMSO and 0.1M 4-morpholineethanesulfonate buffer (MES, pH 6.4).

OVCAR-3 = assay: In vitro cytotoxicity against human cancer cell lines (SRB); type: cell-based; conditions: ovarian; 48 hours incubation
Protocol: (§1) The activity of several compounds were tested against a variety of cell lines derived from human tumors, using an assay system similar to a procedure previously described (Monks et al, J. Natl. Cancer Inst., 1991). Briefly, the cell suspensions, diluted according to the particular cell type and the expected target cell density (5,000–40,000 cells per well based on cell growth characteristics), were added by pipet (100 μl) to 96-well microtiter plates. Inoculates were allowed a preincubation time of 24–28 hours at 37° C. for stabilization. Incubation with the inhibitor compounds lasted for 48 hours in 5% CO2 atmosphere and 100% humidity. Determination of cell growth was performed by in situ fixation of cells, followed by staining with a protein-binding dye sulforhodamine B (SRB), which binds to the basic amino acids of cellular macromolecules. The solubilized stain was measured spectrophotometrically.
(§2) Compounds were evaluated in terms of growth inhibitory activity against several human cancer cell lines including: central nervous system (“CNS”, SF-295 or SF-268), pancreas (BXPC-3), non-small cell lung cancer (“lung-NSC”, NCI-H460), breast (MCF-7), colon (KM20L2), ovarian (OVCAR-3), pharyngeal (FADU), or prostate (DU-145).

FADU = assay: as above; type: cell-based; conditions: pharyngeal; 48 hours incubation
Protocol: as §1, §2

In vitro cytotoxicity = type: cell-based
DU-145 = assay: In vitro cytotoxicity against human cancer cell lines (SRB); type: cell-based; conditions: prostate; 48 hours incubation
Protocol: as §1, with “Briefly,” for “The activity of several compounds were tested against a variety of cell lines derived from human tumors, using an assay system similar to a procedure previously described (Monks et al, J. Natl. Cancer Inst., 1991). Briefly,”
as §2

NCI-H460 = assay: as above; type: cell-based; conditions: lung-NSC; 48 hours incubation
Protocol: as §1, with “Briefly,” for “The activity of several compounds were tested against a variety of cell lines derived from human tumors, using an assay system similar to a procedure previously described (Monks et al, J. Natl. Cancer Inst., 1991). Briefly,”
as §2

SF-295 = assay: as above; type: cell-based; conditions: CNS; 48 hours incubation; unstarred values
Protocol: as §1, with “Briefly,” for “The activity of several compounds were tested against a variety of cell lines derived from human tumors, using an assay system similar to a procedure previously described (Monks et al, J. Natl. Cancer Inst., 1991). Briefly,”
as §2

BXPC-3 = assay: as above; type: cell-based; conditions: pancreas; 48 hours incubation
Protocol: as §1, with “Briefly,” for “The activity of several compounds were tested against a variety of cell lines derived from human tumors, using an assay system similar to a procedure previously described (Monks et al, J. Natl. Cancer Inst., 1991). Briefly,”
as §2

KM20L2 = assay: as above; type: cell-based; conditions: colon; 48 hours incubation
Protocol: as §1, with “Briefly,” for “The activity of several compounds were tested against a variety of cell lines derived from human tumors, using an assay system similar to a procedure previously described (Monks et al, J. Natl. Cancer Inst., 1991). Briefly,”
as §2

MCF-7 = assay: as above; type: cell-based; conditions: breast; 48 hours incubation
Protocol: as §1, with “Briefly,” for “The activity of several compounds were tested against a variety of cell lines derived from human tumors, using an assay system similar to a procedure previously described (Monks et al, J. Natl. Cancer Inst., 1991). Briefly,”
as §2

SF-268 = assay: as above; type: cell-based; conditions: CNS; 48 hours incubation; values marked *
Protocol: as §1, with “Briefly,” for “The activity of several compounds were tested against a variety of cell lines derived from human tumors, using an assay system similar to a procedure previously described (Monks et al, J. Natl. Cancer Inst., 1991). Briefly,”
as §2

[3] = tested on: MHEC-5T hemangioendothelioma tumor model; assay: Inhibition of tumor blood flow, Fluorescent Bead Assay; type: in vivo; conditions: single i.p. injection, 24 hours post-treatment, SCID mice
Protocol: The antivascular effects of the diphosphate BbF, Oxi-com 223, was assessed in tumor-bearing mice using a Fluorescent Bead Assay. A MHEC-5T hemangioendothelioma tumor model was established by subcutaneous injection of 0.5×10^6 cultured transformed cell murine myocardial vascular endothelial cell line (“MHEC5-T”) cells into the right flank of Fox Chase CB-17 Severe Combined Immunodeficient (“SCID”) mice. […] At 24 hours post-treatment, mice were injected intravenously with 0.25 ml of diluted FluoSphere beads (1:6 in physiological saline) in the tail vein, sacrificed after 3 minutes, and tumor was excised for cryosectioning. Tumor cryosections at a thickness of 8 μm were directly examined using quantitative fluorescent microscopy. Blood vessels were indicated by blue fluorescence from injected beads. For quanitification, image analysis of 3 sections from three tumors treated in each group were examined and vascular shutdown was expressed as vessel area (mm^2) per tumor tissue area (mm^2) as a percentage of the control (“% VAPM”). Compounds of the present invention were tested for antivascular effects at two dosages (100 mg/kg and 10 mg/kg) using the same Fluorescent Bead Assay as in the previous experiment.

[4] = 5 days, read-out: IC50 at 5 days
[5] = read-out: IC50 at 1 hour, 1 hour

Row | Structure (SMILES) | IC50 [1, 4] [nM] | IC50 [1, 5] [nM] | IC50 (purified tubulin) [nM] | GI50 for Cell Line DU-145 (DU-145) [µg/mL] | GI50 for Cell Line NCI-H460 (NCI-H460) [µg/mL] | GI50 for Cell Line BXPC-3 (BXPC-3) [µg/mL] | other results
1 | COc1ccc(/C=C\c2cc(OC)c(OC)c(OC)c2)cc1OP(=O)([O-])[O-].[Na+].[Na+] [CA4P, Combretastatin A-4 Disodium Phosphate Prodrug, reference compound] | 2 | 800 | – | – | – | – | effect on tumor growth (tumor volume) relative to control treatment [2]: significantly inhibited tumor growth
2 | COc1ccc2c(-c3ccc(OC)c(O)c3O)coc2c1 [Compound 28, 3-(2′,3′-hydroxy-4′-methoxyphenyl)-6-methoxybenzo[b]furan] | – | – | 1000 to 4000 | – | – | – | –
3 | COc1ccc2c(-c3ccc(OC)c(O)c3O)c(C(=O)c3cc(OC)c(OC)c(OC)c3)oc2c1 [Compound 31, 3-(2″,3″-dihydroxy-4″-methoxyphenyl)-6-methoxy-2-(3′,4′,5′-trimethoxybenzoyl)benzo[b]furan] | – | – | 1000 to 4000 | – | – | – | –
4 | C#C/C=C\C#CC(=O)c1cc(OC)c(OC)c(OC)c1 [Enediyne, 47, 1-(3,4,5-trimethoxybenzoyl)-(Z)-3-ene-1,5-hexadiyne] | – | – | – | 0.54 | 1.7 | 1.4 | GI50 for Cell Line OVCAR-3 (OVCAR-3): 0.53 µg/mL; GI50 for Cell Line FADU (FADU): 0.95 µg/mL; cytotoxicity (in words) (In vitro cytotoxicity): strong cytotoxicity; GI50 for Cell Line SF-295 (SF-295): 1.7 µg/mL; inhibition of tubulin polymerization (in words) (purified tubulin): excellent inhibition of tubulin polymerization
5 | COc1ccc2c(C(=O)c3cc(OC)c(OC)c(OC)c3)c(-c3ccc(OC)c(OP(=O)([O-])[O-])c3)sc2c1.[Na+].[Na+] [Oxi-com 140, 8, 3-(3′,4′,5′-trimethoxybenzoyl)-2-(3′-sodiumphosphate-4′-methoxyphenyl)-6-methoxybenzo[b]thiophene] | 129 | > 11200 | – | 0.045 | 0.035 | 0.35 | GI50 for Cell Line KM20L2 (KM20L2): 0.22 µg/mL; GI50 for Cell Line MCF-7 (MCF-7): 0.028 µg/mL; GI50 for Cell Line SF-295 (SF-295): 0.11 µg/mL; effect on tumor growth (tumor volume) relative to control treatment [2]: significantly inhibited tumor growth
6 | COc1ccc2c(C(=O)c3cc(OC)c(OC)c(OC)c3)c(-c3ccc(OC)c(OP(=O)([O-])[O-])c3)oc2c1.[Na+].[Na+] [Oxi-com 195, 19, 2-(3″-disodiumphosphate-4″-methoxyphenyl)-6-methoxy-3-(3′,4′,5′-trimethoxybenzoyl)benzo[b]furan] | 100 | > 25000 | 4000 to 10000 | 0.05 | 0.05 | 2.3 | GI50 for Cell Line KM20L2 (KM20L2): 3.8 µg/mL; GI50 for Cell Line MCF-7 (MCF-7): 0.042 µg/mL; GI50 for Cell Line SF-268 (SF-268): *0.062 μg/ml
7 | COc1ccc2c(C(=O)c3cc(OC)c(OC)c(OC)c3)c(-c3ccc(OC)c(OP(=O)([O-])[O-])c3)oc2c1.[Na+].[Na+] [Oxi-com 223, 33, 3-(3′,4′,5′-trimethoxybenzoyl)-2-(3′-disodiumphosphate-4′-methoxyphenyl)-6-methoxybenzo[b]furan] | > 1400 | > 50000 | – | – | – | – | % VAPM at 10 mg/kg dose ([3]; 10 mg/kg): 10%; % VAPM at 100 mg/kg dose ([3]; 100 mg/kg): 51%
